Usually EC50 stands for the concentration that produces a half-maximal response. The AC50 is the concentration giving half of the maximal activity seen.

This passage reports EC50, IC50 and AC50 results from ChEMBL document CHEMBL1201862, “PubChem BioAssay data set” (2004).

SMILES strings stand for the structures. The source made the active and inactive calls. Unless noted, the rule behind the calls is not given here.

Experiment [1] concerns the target Beta-adrenergic receptor kinase 1 (Homo sapiens, UniProt P25098). Description: aptamer displacement from bead-bound GRK2 – biochemical, cherry pick 1, bead flow cytometry, dose response (AID 504500). In general terms: Flow cytometry measures light scatter and fluorescence of single cells or particles in a stream.
The target in experiment [2] is T1, Carboxy-terminal domain RNA polymerase II polypeptide A small phosphatase 1 (Homo sapiens, UniProt Q9GZU7).
T1 sequence (Q9GZU7 whole entry): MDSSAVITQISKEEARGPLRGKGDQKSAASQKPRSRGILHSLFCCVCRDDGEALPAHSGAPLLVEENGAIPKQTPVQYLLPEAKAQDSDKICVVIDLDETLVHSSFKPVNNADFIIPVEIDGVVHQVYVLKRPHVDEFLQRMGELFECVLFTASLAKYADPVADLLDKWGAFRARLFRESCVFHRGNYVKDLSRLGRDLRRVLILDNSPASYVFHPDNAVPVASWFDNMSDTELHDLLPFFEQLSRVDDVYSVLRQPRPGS
Description: inhibitors of CTDSP1, concentration-response testing, biochemical assay, absorbance-based, actives from ultra-high-throughput screening (AID 540297). The experiment is classed as functional.

The target of experiment [3] is T2, Small ubiquitin-related modifier 1 (Homo sapiens, UniProt P63165). The experiment is described as follows: inhibitors of SUMO1 peptide binding, dose response, biochemical, fluorescence polarization, uHTS hits (AID 624382). The note with it: read-out: IC50_Mean. It is filed as functional.
T2 sequence (P63165 whole entry): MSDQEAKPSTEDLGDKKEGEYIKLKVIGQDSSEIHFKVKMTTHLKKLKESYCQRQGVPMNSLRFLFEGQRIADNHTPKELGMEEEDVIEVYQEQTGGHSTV
For experiment [4], the target named is T2, Small ubiquitin-related modifier 1. Description: inhibitors of SUMO1 partner interactions, dose response, biochemical, FRET (AID 624383). The experiment is classed as functional. The following applies: read-out: IC50_Mean.
In experiment [5] the target is DNA (cytosine-5)-methyltransferase 1 (Homo sapiens, UniProt P26358). The experiment is described as follows: DNMT1 methyltransferase inhibitors, confirmation, biochemical, fluorescent molecular beacon (AID 602386). The experiment is classed as functional.
Experiment [6] can be described thus: blockers of SFLLRN-triggered platelet ATP secretion – cell-based, human platelets, luminescence, dry powder, dose response (AID 493100). The experiment is classed as functional.
Experiment [7] has as its target Luciferin 4-monooxygenase (Photinus pyralis, UniProt P08659). The experiment is described as follows: firefly luciferase enzyme inhibitors, dose response, biochemical, luminescence (AID 1891).
Experiment [8] is described as follows: Luminescence Cell-Based Dose Response Follow up to Identify Inhibitors of Platelet Dense Granule Release. [Related pubchem assays (depositor defined):AID1663, AID1678, AID2398]. It is filed as functional.
Experiment [9] is described as follows: inhibitors of SFLLRN-triggered platelet P-selectin exposure, dose response, cell-based, fluorescence, flow cytometry, human platelets (AID 2511). It is filed as functional.
Experiment [10] in a line: Luminescence Cell-Based Dose Confirmation HTS to Identify Inhibitors of Platelet Dense Granule Release. [Related pubchem assays: 1663 (Primary HTS), 1678 (Summary of Project)]. It is filed as functional.
Experiment [11] in a line: Fluorescence Cell-Based Dose Response to Identify Inhibitors of Thrombin Receptor-Activating Peptide SFLLRN-Mediated P-Selectin Induction on Platelets. [Related pubchem assays: 1663 (Primary HTS), 1889 (retest at dose ), 1891 (counterscreen), 1678 (Project Summary)]. The experiment is classed as functional. In general terms: The purpose of a counterscreen is to sort out artefacts and off-target activity.

The target of experiment [12] is T3, Short transient receptor potential channel 4 (Mus musculus, UniProt Q9QUQ5).
T3 sequence (Q9QUQ5 whole entry): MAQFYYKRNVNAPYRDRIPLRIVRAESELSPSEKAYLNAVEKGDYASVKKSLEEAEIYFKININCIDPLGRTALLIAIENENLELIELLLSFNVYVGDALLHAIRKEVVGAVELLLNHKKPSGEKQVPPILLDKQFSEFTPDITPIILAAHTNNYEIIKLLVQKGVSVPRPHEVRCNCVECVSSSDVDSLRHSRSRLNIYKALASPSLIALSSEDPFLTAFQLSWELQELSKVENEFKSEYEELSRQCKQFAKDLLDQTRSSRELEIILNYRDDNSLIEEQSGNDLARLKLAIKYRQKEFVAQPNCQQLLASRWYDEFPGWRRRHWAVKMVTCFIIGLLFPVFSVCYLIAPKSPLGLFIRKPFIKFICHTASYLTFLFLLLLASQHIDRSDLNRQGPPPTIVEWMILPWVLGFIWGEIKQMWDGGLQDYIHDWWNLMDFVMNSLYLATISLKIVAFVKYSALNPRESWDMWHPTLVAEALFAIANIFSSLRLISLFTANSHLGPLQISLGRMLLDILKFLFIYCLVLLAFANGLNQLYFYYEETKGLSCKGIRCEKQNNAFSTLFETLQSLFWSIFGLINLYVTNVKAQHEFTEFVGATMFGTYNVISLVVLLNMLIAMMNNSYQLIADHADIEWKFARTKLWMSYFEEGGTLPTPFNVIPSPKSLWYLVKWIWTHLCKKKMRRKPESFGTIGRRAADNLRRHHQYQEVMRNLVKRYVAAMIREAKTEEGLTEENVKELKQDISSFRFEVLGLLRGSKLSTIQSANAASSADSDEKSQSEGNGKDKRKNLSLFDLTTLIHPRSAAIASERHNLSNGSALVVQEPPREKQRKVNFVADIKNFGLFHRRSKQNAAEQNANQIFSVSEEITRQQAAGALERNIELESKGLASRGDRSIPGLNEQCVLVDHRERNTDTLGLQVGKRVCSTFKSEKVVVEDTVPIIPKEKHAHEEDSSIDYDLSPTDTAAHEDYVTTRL
The experiment is described as follows: TRPC4 inhibition under acetylcholine activation, SAR follow-up, cell-based, acetylcholine stimulus, HEK293 TRPC4, Fluo-4 (AID 492996). The experiment is classed as functional.

The target of experiment [13] is T3, Short transient receptor potential channel 4. Description: TRPC4 inhibitor concentration-response, dose response, cell-based, HEK293 TRPC4/mu-opioid, DAMGO stimulus, Fluo-4 (AID 492994). The experiment is classed as functional.
The target of experiment [14] is Short transient receptor potential channel 6 (Mus musculus, UniProt Q61143). The experiment is described as follows: TRPC6 inhibition potency of TRPC4 inhibitor analogs, dose response, selectivity assay for selective TRPC4 inhibitor project, HEK293 cells, membrane potential dye, IC50 (AID 492987). The experiment is classed as functional, cell-based.
Short transient receptor potential channel 6, sequence (Q61143 whole entry): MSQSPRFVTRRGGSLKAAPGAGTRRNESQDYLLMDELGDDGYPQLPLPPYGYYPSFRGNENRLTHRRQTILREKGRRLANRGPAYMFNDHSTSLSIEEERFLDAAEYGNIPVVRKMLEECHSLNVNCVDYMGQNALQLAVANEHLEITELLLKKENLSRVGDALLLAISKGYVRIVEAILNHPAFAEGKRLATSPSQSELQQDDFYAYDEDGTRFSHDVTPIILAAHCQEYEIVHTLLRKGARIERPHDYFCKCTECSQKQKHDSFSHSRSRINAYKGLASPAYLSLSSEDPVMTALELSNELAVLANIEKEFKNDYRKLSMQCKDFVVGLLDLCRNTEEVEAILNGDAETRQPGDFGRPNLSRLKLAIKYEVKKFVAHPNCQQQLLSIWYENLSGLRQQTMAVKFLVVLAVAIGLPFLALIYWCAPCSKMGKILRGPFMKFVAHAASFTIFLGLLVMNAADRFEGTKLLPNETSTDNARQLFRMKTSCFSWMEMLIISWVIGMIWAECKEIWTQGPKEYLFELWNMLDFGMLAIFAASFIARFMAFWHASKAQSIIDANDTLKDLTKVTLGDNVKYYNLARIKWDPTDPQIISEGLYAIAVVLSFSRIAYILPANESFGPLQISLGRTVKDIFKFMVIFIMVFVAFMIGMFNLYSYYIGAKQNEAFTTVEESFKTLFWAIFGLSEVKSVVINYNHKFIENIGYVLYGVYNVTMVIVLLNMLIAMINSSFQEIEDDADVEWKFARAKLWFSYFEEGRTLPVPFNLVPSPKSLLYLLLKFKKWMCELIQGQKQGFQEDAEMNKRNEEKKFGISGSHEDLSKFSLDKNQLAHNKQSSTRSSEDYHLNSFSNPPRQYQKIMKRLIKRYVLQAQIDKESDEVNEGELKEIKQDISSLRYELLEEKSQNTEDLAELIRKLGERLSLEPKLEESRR
Experiment [15] deals with T3, Short transient receptor potential channel 4. The experiment is described as follows: SAR Analysis for the identification of selective inhibits of the transient receptor potential cation channel C4 (TRPC4): Automated Electrophysiology. [Related pubchem assays (depositor defined):AID2256]. The experiment is classed as functional.
The target in experiment [16] is T4, CAAX prenyl protease 2 (Homo sapiens, UniProt Q9Y256). Description: human Rce1 protease inhibitors, dose response, biochemical, yeast membranes, quenched-peptide fluorescence, cherry-pick (AID 588849).
T4 sequence (Q9Y256 whole entry): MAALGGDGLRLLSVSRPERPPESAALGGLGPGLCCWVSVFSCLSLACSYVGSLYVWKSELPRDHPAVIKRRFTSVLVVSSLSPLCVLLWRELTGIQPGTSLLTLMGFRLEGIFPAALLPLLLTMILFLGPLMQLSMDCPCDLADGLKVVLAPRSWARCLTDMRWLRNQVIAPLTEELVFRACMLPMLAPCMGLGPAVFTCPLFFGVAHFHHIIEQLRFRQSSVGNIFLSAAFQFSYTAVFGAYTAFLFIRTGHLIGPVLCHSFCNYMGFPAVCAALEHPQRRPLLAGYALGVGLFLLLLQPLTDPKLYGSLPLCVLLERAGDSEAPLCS
Experiment [17] deals with T5, CAAX prenyl protease 2 (Saccharomyces cerevisiae S288c, UniProt Q03530).
T5 sequence (Q03530 whole entry): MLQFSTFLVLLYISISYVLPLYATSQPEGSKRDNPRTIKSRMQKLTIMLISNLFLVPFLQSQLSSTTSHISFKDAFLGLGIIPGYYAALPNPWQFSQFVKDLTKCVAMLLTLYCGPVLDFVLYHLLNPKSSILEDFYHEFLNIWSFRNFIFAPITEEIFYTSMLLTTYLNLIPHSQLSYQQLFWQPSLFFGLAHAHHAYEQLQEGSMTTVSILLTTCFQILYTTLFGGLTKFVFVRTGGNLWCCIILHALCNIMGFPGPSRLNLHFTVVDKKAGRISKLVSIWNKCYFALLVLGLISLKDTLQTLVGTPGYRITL
It is filed as biochemical.

Experiment [18] addresses T5, CAAX prenyl protease 2. The experiment is described as follows: yeast Rce1 CaaX protease inhibitors, dose response, biochemical, plate reader, dry powder retest (AID 588851).
Experiment [19] addresses T4, CAAX prenyl protease 2. Description: human Rce1 protease inhibitors, dose response, biochemical, plate reader, dry powder samples (AID 588848).
Experiment [20] addresses Latent membrane protein 1 (Human herpesvirus 4 (strain B95-8), UniProt P03230). The experiment is described as follows: TES1-eGFP NF-kB reporter inhibition versus Tet-On dsRED, dose response, selectivity assay for LMP1 NF-kB inhibitor project, imaging, HEK293T, dual-color eGFP/dsRED, cherry-picks (AID 588398). It is filed as functional, cell-based.
For experiment [21], the target named is T6, Bcl-2-like protein 10 (Homo sapiens, UniProt Q9HD36).
T6 sequence (Q9HD36 whole entry): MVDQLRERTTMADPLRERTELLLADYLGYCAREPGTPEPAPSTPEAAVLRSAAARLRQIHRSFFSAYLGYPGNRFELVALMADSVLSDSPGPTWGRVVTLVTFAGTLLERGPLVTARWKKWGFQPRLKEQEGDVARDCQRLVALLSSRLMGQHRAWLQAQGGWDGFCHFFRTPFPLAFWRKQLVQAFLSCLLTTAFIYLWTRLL
Description: Isothermal titration calorimetry (ITC) with Bcl-B and compounds active in primary screen. [Related pubchem assays (depositor defined):AID1693]. It is filed as functional. On the technique in general: Isothermal titration calorimetry measures the heat released or taken up as one component is titrated into another.

The target of experiment [22] is Beta-2 adrenergic receptor (Homo sapiens, UniProt P07550). The experiment is described as follows: beta2AR agonists driving receptor internalization, dose response, cell-based, FAP fluorogen, flow cytometry, cherry pick 1 (AID 588763). It is filed as functional.
Beta-2 adrenergic receptor, sequence (P07550 whole entry): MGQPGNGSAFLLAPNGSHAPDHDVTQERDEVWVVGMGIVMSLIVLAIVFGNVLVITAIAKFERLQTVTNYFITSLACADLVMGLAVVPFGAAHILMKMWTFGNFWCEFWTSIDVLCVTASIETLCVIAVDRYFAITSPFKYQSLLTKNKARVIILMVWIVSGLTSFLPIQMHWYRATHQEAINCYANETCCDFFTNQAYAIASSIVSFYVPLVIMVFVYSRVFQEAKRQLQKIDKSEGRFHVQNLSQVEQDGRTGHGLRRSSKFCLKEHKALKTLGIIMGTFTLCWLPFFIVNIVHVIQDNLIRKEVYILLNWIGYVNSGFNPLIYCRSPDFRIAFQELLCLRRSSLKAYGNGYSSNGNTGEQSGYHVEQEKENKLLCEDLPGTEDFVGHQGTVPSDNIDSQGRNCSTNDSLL
The target in experiment [23] is Phospholipase D1 (Homo sapiens, UniProt Q13393). Description: PLD1 inhibitor potency in cells, dose response (AID 602151).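 Also: cellular PLD1 assay in Calu-1 cells stimulated with PMA.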 It is filed as functional.
Phospholipase D1, sequence (Q13393 whole entry): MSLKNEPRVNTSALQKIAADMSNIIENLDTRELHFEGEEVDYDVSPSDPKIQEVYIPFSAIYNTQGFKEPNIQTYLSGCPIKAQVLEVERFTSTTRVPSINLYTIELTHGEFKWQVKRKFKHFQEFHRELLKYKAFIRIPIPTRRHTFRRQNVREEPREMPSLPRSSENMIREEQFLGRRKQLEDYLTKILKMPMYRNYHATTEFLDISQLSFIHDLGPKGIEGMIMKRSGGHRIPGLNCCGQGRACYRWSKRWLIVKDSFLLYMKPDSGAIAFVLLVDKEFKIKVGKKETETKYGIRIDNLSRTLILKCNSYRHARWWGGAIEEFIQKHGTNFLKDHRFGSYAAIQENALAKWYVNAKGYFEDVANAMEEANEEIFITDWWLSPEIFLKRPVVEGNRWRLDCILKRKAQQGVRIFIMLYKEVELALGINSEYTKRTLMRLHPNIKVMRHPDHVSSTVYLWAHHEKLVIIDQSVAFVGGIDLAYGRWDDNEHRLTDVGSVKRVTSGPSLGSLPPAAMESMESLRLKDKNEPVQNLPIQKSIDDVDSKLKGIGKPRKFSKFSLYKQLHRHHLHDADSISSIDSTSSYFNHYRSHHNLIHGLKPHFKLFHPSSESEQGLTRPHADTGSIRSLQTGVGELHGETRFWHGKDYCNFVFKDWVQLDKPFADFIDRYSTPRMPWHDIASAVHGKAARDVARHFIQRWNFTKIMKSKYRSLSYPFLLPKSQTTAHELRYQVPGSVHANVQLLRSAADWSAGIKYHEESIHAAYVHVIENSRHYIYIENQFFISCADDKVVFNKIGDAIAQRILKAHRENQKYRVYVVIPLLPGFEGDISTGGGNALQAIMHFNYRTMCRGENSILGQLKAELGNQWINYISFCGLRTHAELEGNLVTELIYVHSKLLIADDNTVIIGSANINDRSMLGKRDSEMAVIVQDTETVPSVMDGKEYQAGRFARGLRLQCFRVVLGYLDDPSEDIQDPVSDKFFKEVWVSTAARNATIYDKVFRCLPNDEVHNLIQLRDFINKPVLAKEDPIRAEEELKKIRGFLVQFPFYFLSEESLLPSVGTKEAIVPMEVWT
Experiment [24] deals with Phospholipase D2 (Homo sapiens, UniProt O14939). The experiment is described as follows: PLD2 inhibitor potency in cells, dose response (AID 602147).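 Also: cellular assay in HEK293 cells overexpressing GFP-tagged PLD2.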 The experiment is classed as functional.
Phospholipase D2, sequence (O14939 whole entry): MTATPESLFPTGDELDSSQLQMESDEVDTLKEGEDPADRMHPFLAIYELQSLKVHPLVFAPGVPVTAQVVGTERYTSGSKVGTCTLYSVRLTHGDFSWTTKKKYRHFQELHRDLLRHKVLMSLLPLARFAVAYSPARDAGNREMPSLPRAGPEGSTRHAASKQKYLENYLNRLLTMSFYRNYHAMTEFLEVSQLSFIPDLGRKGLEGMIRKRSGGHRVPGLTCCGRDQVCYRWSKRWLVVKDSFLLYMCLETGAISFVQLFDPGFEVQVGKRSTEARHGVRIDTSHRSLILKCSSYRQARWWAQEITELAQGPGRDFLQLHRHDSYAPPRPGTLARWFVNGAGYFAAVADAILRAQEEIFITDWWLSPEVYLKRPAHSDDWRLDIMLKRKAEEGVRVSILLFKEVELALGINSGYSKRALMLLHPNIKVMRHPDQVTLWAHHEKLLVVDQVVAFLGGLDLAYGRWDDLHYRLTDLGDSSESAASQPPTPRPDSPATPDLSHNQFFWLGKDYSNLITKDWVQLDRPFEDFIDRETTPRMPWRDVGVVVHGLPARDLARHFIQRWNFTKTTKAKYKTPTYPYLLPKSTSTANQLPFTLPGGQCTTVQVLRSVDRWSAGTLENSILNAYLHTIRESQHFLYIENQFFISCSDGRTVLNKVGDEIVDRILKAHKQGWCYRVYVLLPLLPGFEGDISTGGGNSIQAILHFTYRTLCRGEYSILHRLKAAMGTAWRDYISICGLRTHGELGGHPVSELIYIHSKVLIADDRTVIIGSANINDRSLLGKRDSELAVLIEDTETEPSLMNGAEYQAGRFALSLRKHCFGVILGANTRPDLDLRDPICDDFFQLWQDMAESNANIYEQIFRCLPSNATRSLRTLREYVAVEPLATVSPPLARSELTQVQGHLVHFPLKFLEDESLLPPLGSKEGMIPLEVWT

Latent membrane protein 1, sequence (P03230 whole entry): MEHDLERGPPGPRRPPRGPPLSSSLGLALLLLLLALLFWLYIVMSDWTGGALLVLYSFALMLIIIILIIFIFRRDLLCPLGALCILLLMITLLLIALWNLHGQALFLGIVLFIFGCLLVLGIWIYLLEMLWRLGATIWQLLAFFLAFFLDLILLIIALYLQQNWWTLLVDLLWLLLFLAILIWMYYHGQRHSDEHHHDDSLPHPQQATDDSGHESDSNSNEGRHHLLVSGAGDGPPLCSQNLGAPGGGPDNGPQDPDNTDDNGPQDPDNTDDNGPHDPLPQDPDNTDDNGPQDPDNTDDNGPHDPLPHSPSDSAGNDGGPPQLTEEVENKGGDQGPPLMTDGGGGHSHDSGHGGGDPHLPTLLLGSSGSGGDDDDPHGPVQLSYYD
Beta-adrenergic receptor kinase 1, sequence (P25098 whole entry, the tested form may be a part): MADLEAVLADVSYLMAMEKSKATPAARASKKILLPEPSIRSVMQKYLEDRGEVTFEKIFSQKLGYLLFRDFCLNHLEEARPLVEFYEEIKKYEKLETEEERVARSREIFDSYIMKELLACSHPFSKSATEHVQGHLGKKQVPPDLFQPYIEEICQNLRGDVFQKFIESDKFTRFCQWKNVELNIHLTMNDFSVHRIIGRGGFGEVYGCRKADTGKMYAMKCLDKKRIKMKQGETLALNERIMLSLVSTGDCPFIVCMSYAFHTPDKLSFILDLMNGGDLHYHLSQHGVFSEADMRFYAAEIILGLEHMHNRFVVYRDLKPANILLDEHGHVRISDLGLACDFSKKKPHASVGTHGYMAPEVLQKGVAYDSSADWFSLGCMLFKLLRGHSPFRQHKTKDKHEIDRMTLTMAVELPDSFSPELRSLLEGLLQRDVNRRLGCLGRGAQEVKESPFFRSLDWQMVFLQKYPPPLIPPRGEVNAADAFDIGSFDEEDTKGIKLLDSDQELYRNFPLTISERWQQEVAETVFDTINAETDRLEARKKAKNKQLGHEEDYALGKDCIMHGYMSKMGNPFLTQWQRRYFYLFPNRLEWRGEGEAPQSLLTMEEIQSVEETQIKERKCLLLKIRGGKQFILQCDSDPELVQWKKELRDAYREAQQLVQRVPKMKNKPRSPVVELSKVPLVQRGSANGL

For the compound `CCOC(=O)C(C)N1C(=O)S/C(=C\c2ccc(-c3ccccc3C(=O)O)o2)C1=O` (centres undefined), the EC50 in experiment [1] is 3.05 µM (active). For the same compound, the IC50 was 1.88 µM (active) in experiment [2], > 66.6 µM (inactive) in [3], 10.3 µM (active) in experiment [4] and 6.76 µM (active) in experiment [5].

Take `Cc1ccc(-n2c(N)c(C#N)c(-c3ccccc3)c(C#N)c2=O)cc1`: the half-maximal activity concentration (AC50) in experiment [6] was 7.52 µM (active). Also, the EC50 in experiment [7] was > 112 µM (not active); in [8], 0.36 µM (active); in experiment [9], < 3 µM (active); in experiment [10], 3.22 µM (active); in experiment [11], < 0.3 µM (active).

`Cc1cc(N2CCCC2)nc2ccccc12`: the IC50 was 39.1 µM (active) in experiment [12], 1.84 µM (active) in experiment [13], 11.9 µM (active) in experiment [14] and 3.59 µM (active) in [15].

Regarding `CN(C(=O)COC(=O)c1cc([N+](=O)[O-])ccc1Sc1ccccc1)C1CCS(=O)(=O)C1` (centres undefined), the half-maximal activity concentration (AC50) in experiment [16] was 17.3 µM (active); in experiment [17] it was 0.55 µM (active); in experiment [18] it was 4.85 µM (active); in [19], 60.6 µM (active).

For `CC(=NNC(=S)N1CCCCC1)c1ccccn1`, the AC50 in [20] was 4.29 µM (active).

In the case of `Cc1ccc(C=NNC(=O)CSc2nnc(-c3ccc(Cl)cc3)n2-c2ccccc2)o1`, the IC50 in [21] was 3.16 µM (active).

As for `CCOC(=O)c1ccc(N2C(=O)c3[nH]nc(-c4ccco4)c3C2c2cccc([N+](=O)[O-])c2)cc1` (centres undefined), in [22], the 50% effective concentration (EC50) is 0.571 µM (active).

Regarding `O=C(c1cnc2ccccc2c1)N1CCCC1CN1CCC(n2c(=O)[nH]c3ccccc32)CC1` (centres undefined), the IC50 in experiment [23] was 2.8 µM (active); in experiment [24], 3.75 µM (active).
